Data from patent publication US8193191B2, “Urotensin II receptor antagonists” (Janssen Pharmaceutica N.V., priority 2006, dated 2012).
Read-outs that look alike come from different tables or passages of the source.

Target: T1, rat GPR14 (U-II receptor) (Rattus norvegicus, UniProt P49684)
T1 construct: expressed in transfected cells
T1 sequence (P49684 1-386): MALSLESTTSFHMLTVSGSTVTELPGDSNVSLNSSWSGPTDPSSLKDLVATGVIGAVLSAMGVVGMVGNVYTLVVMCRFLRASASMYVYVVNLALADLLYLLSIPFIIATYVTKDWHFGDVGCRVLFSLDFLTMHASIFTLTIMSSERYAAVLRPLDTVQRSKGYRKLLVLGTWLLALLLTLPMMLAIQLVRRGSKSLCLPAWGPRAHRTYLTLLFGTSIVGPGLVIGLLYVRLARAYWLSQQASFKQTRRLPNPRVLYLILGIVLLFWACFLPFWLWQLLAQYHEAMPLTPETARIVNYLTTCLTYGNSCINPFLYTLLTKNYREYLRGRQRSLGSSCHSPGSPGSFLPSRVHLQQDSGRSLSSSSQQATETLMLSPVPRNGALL
Assay: Rat UII Calcium Mobilization FLIPR Assay
Format: cell-based
Conditions: for inhibition at 10 µM / inhibition at 50 µM: CHO, 5 min, agonist-induced Ca2+ mobilization (FLIPR), CHO cells with rat UII receptor; for inhibition at 10 µM: 10 μM compound, read-out: % I @ 10; for inhibition at 50 µM: 50 μM compound, read-out: % I @ 50
Source text: To derive these cells, the complete coding sequence of rat U-II (Genbank Accession No. U32673) was amplified by nested PCR from rat heart marathon-Ready cDNA. […] The PCR products were cloned into pcDNA3 (Invitrogen) digested with EcoR I and Xba I. Clones containing rat U-II receptor were verified by complete sequencing of the U-II receptor insert to ensure a lack of PCR-introduced errors. The constructed vector was transfected into CHO cells by using lipofectamine (GIBCO BRL). CHO cells with high expression of rat U-II receptor were selected and established as stable cell lines by using G418. CHO cells were seeded at 25,000 cells per well into 96-well, black-wall, clear-bottom microtiter plates 24 h before assay. Cells in culture media (DMEM/F12 containing 15 mM HEPES, L-glutamine, pyridoxine hydrochloride; 10% fetal bovine serum; 1 mg/mL G418 sulfate; antibiotic-antimycotic; pH 7.4) were loaded with proprietary dye, from the FLIPR Calcium Assay Kit (Molecular Devices), prepared in assay buffer (Hanks Balanced Salts Solution, 20 mM HEPES, 0.1% BSA, 2.5 mM probenecid, pH 7.4), and incubated for 1 h at 37° C. Calcium mobilization determinations were performed at room temperature (23° C.).

[1] = average value for the compound tested, read-out: Rat UII FLIPR Average IC50
[2] = Inhibition of Acetyl-cyclic[Cys-Phe-Trp-Lys-(2-Nal)-Cys]-NH2 induced Ca2+ mobilization (FLIPR) in CHO cells transfected with rat UII receptor, read-out: IC50

Structure (SMILES) | IC50 [1] [µM] | inhibition at 10 µM [%] | inhibition at 50 µM [%] | IC50 [2] [µM]
COc1ccc(C(CCCNS(=O)(=O)c2ccc(Br)s2)N2C(=O)c3cccc(N4CCN([C@H](C)c5ccccc5)CC4)c3C2=O)cc1OC (stereo partly drawn) [Cpd 100, 5-bromo-thiophene-2-sulfonic acid (4-(3,4-dimethoxy-phenyl)-4-{1,3-dioxo-4-[4-(1R)-(1-phenyl-ethyl)-piperazin-1-yl]-1,3-dihydro-isoindol-2-yl}-butyl)-amide] | 0.57 |  |  | 
COc1ccc(CN2CCN(c3cccc4c3C(=O)N(Cc3ccc(OC)c(OC)c3)C4=O)CC2)cc1OC [Cpd 56, 2-(3,4-dimethoxy-benzyl)-4-[4-(3,4-dimethoxy-benzyl)-piperazin-1-yl]-isoindole-1,3-dione] |  | 21 | 68 | 25
COc1ccc(CN2C(=O)c3cccc(N4CCN(Cc5ccc(Cl)cc5)CC4)c3C2=O)cc1OC [Cpd 57, 4-[4-(4-chloro-benzyl)-piperazin-1-yl]-2-(3,4-dimethoxy-benzyl)-isoindole-1,3-dione] |  | 19 | 58 | 30
COc1ccc(C(CCCNS(=O)(=O)c2csc3ccccc23)N2C(=O)c3cccc(N4CCN([C@H](C)c5ccccc5)CC4)c3C2=O)cc1OC (stereo partly drawn) [Cpd 116, benzo[b]thiophene-3-sulfonic acid (4-(3,4-dimethoxy-phenyl)-4-{1,3-dioxo-4-[4-(1R)-(1-phenyl-ethyl)-piperazin-1-yl]-1,3-dihydro-isoindol-2-yl}-butyl)-amide] | 1.4 |  |  | 
COc1ccc(CN2C(=O)c3cccc(N4CCN(Cc5cccc(C)c5)CC4)c3C2=O)cc1OC [Cpd 36, 2-(3,4-dimethoxy-benzyl)-4-[4-(3-methyl-benzyl)-piperazin-1-yl]-isoindole-1,3-dione] |  | 63 | 82 | 6.5
COc1ccc(CN2C(=O)c3cccc(N4CCN(Cc5ccccc5Cl)CC4)c3C2=O)cc1OC [Cpd 31, 4-[4-(2-chloro-benzyl)-piperazin-1-yl]-2-(3,4-dimethoxy-benzyl)-isoindole-1,3-dione] |  | 65 | 89 | 4.5
COc1ccc(CN2C(=O)c3cccc(NCCNCc4ccccc4)c3C2=O)cc1OC [Cpd 48, 4-(2-benzylamino-ethylamino)-2-(3,4-dimethoxy-benzyl)-isoindole-1,3-dione] |  | 41 | 78 | 16
COc1ccc(C(CCCNS(=O)(=O)c2cc(S(=O)(=O)c3ccccc3)cs2)N2C(=O)c3cccc(N4CCN([C@H](C)c5ccccc5)CC4)c3C2=O)cc1OC (stereo partly drawn) [Cpd 92, 4-benzenesulfonyl-thiophene-2-sulfonic acid (4-(3,4-dimethoxy-phenyl)-4-{1,3-dioxo-4-[4-(1R)-(1-phenyl-ethyl)-piperazin-1-yl]-1,3-dihydro-isoindol-2-yl}-butyl)-amide] | 0.92 |  |  | 
COc1cc(CN2C(=O)c3cccc(N4CCN(C(C)C)CC4)c3C2=O)cc(OC)c1OC [Cpd 52, 4-(4-isopropyl-piperazin-1-yl)-2-(3,4,5-trimethoxy-benzyl)-isoindole-1,3-dione] |  | 17 | 71 | 18
COc1ccc(C(CCCNC(=O)Nc2cccs2)N2C(=O)c3cccc(N4CCN([C@H](C)c5ccccc5)CC4)c3C2=O)cc1OC (stereo partly drawn) [Cpd 120, 1-(4-(3,4-dimethoxy-phenyl)-4-{1,3-dioxo-4-[4-(1R)-(1-phenyl-ethyl)-piperazin-1-yl]-1,3-dihydro-isoindol-2-yl}-butyl)-3-thiophen-2-yl-urea] | 0.31 |  |  | 
O=C1c2cccc(N3CC4CCC(C3)N4Cc3ccccc3)c2C(=O)N1Cc1ccccn1 [Cpd 59, 4-(8-benzyl-3,8-diaza-bicyclo[3.2.1]oct-3-yl)-2-pyridin-2-ylmethyl-isoindole-1,3-dione] |  | 11 | 56 | 34
COc1cc(CN2C(=O)c3cccc(N4CC5CCC(C4)N5Cc4ccccc4)c3C2=O)cc(OC)c1OC [Cpd 26, 4-(8-benzyl-3,8-diaza-bicyclo[3.2.1]oct-3-yl)-2-(3,4,5-trimethoxy-benzyl)-isoindole-1,3-dione] |  | 81 | 94 | 3.4
COc1ccc(CN2C(=O)c3cccc(C4=CC5CCC(C4)N5Cc4ccccc4)c3C2=O)cc1OC (centres unmarked) [Cpd 50, 4-(8-benzyl-8-aza-bicyclo[3.2.1]oct-2-en-3-yl)-2-(3,4-dimethoxy-benzyl)-isoindole-1,3-dione] |  | 42 | 77 | 17
COc1ccc(CN2C(=O)c3cccc(N4CCN(Cc5cccc(Cl)c5)CC4)c3C2=O)cc1OC [Cpd 44, 4-[4-(3-chloro-benzyl)-piperazin-1-yl]-2-(3,4-dimethoxy-benzyl)-isoindole-1,3-dione] |  | 42 | 79 | 12
COc1ccc(CN2C(=O)c3cccc(N4CCN([C@@H](C)c5ccccc5)CC4)c3C2=O)cc1OC [Cpd 14, 2-(3,4-dimethoxy-benzyl)-4-[4-(1S)-(1-phenyl-ethyl)-piperazin-1-yl]-isoindole-1,3-dione] |  | 98 | 101 | 0.49
O=C1c2cccc(N3CCN(Cc4ccccc4)CC3)c2C(=O)N1CCc1ccncc1 [Cpd 43, 4-(4-benzyl-piperazin-1-yl)-2-(2-pyridin-4-yl-ethyl)-isoindole-1,3-dione] |  | 50 | 97 | 10
CCCOc1ccc(CN2C(=O)c3cccc(N4CCN([C@H](C)c5ccccc5)CC4)c3C2=O)cc1OC [Cpd 41, 2-(3-methoxy-4-propoxy-benzyl)-4-[4-(1R)-(1-phenyl-ethyl)-piperazin-1-yl]-isoindole-1,3-dione] |  | 57 | 69 | 9.8
COc1ccc(CN2C(=O)c3cccc(OCCNCc4ccccc4)c3C2=O)cc1OC [Cpd 54, 4-(2-benzylamino-ethoxy)-2-(3,4-dimethoxy-benzyl)-isoindole-1,3-dione] |  | 15 | 81 | 21
COc1ccc(CN2C(=O)c3cccc(N4CCN(C5CCc6ccccc65)CC4)c3C2=O)cc1OC (centres unmarked) [Cpd 20, 2-(3,4-dimethoxy-benzyl)-4-(4-indan-1-yl-piperazin-1-yl)-isoindole-1,3-dione] |  | 78 | 15 | 1.5
COc1ccc(CN2C(=O)c3cccc(N4CCN(Cc5ccccc5C)CC4)c3C2=O)cc1OC [Cpd 33, 2-(3,4-dimethoxy-benzyl)-4-[4-(2-methyl-benzyl)-piperazin-1-yl]-isoindole-1,3-dione] |  | 60 | 97 | 5
O=C1c2cccc(N3CCN(Cc4ccccc4)CC3)c2C(=O)N1CCCn1ccnc1 [Cpd 47, 4-(4-benzyl-piperazin-1-yl)-2-(3-imidazol-1-yl-propyl)-isoindole-1,3-dione] |  | 25 | 78 | 15
COc1ccc(C(CCNC(=O)Nc2cccs2)N2C(=O)c3cccc(N4CCN([C@H](C)c5ccccc5)CC4)c3C2=O)cc1OC (stereo partly drawn) [Cpd 121, 1-(3-(3,4-dimethoxy-phenyl)-3-{1,3-dioxo-4-[4-(1R)-(1-phenyl-ethyl)-piperazin-1-yl]-1,3-dihydro-isoindol-2-yl}-propyl)-3-thiophen-2-yl-urea] | 0.27 |  |  | 
